# Laboratory results taken from article PMC12700550, “DLL4^+ neutrophils promote Notch1-mediated endothelial PANoptosis to exacerbate acute lung injury in sepsis” (The Journal of Clinical Investigation, 2025).
# Several values for one entry are separate records, joined by “and”; a condition that tells them apart may be missing. Equal values may be shown once.
# B1: eCIRP: extracellular cold-inducible RNA-binding protein; recombinant murine, produced in our laboratory (protein, UniProt P60824 1-172, looked up)
# Cold-inducible RNA-binding …: MASDEGKLFVGGLSFDTNEQALEQVFSKYGQISEVVVVKDRETQRSRGFGFVTFENIDDAKDAMMAMNGKSVDGRQIRVDQAGKSSDNRSRGYRGGSAGGRGFFRGGRSRGRGFSRGGGDRGYGGGRFESRSGGYGGSRDYYASRSQGGSYGYRSSGGSYRDSYDSYATHNE
# Tests used:
# IL-6 [1] = test: Lung IL-6 mRNA, CLP mice; type: in vivo, mouse; details: 20 h; for lung IL-6 mRNA (Figure 6G): 10 mg/kg NDI, vs sham, individual mice
# Experimental: (§1) Sepsis was induced in mice by cecal ligation and puncture (CLP) as described previously ([45], [46]). Mice were anesthetized with isoflurane to a surgical plane and placed in a supine position. CLP was performed through a midline laparotomy. The abdomen was shaved and disinfected. Through a 2 cm midline incision, the cecum was exposed and then ligated with a 4-0 silk suture 1 cm proximal from the distal cecal extremity. For 20-hour CLP experiments, the cecum was punctured twice with a 22-gauge needle. A small amount of cecal content was extruded through both holes, and the ligated cecum was returned to the peritoneal cavity. The wound was closed in layers. For 10-day sepsis survival studies, the cecum was punctured once with a 22-gauge needle. A small amount of cecal content was extruded. Mice were allocated to the vehicle and adoptive transfer of DLL4^+ neutrophils or DLL4^– neutrophils groups. Adoptive transfer mice received a retro-orbital injection of 1 × 10^6 cells per mouse DLL4^+ neutrophils or DLL4^– neutrophils in […] phosphate-buffered saline (PBS) immediately after abdominal closure in both the 20-hour experiments and the survival study. Vehicle groups received an equivalent volume of PBS, while treatment groups received NDI 10 mg/kg in […] PBS via retro-orbital injection after CLP. This dose was chosen primarily on the basis of our laboratory’s prior experience, we have consistently used this dose in mouse CLP models with reproducible efficacy and without observable toxicity ([39], [44]). Sham-operated animals underwent a laparotomy without CLP. After closure, the mice received a subcutaneous injection of 0.5 mL of normal saline to overcome surgery-induced dehydration. For 20-hour experiments, animals were not injected with antibiotics; however, for survival studies, animals were given 0.5 mg per kg body weight imipenem (lot 4D21K05, WG Critical Care LLC) subcutaneously in 0.5 mL saline once at the end of CLP. All mice were subcutaneously injected with a single dose of 0.1 mg/kg buprenorphine after CLP. […]
# C57BL/6 mice, CLP sepsis = test: Serum alanine aminotransferase (ALT), CLP mice; type: in vivo, mouse; parameters: serum ALT (Figure 6A): unit not given here; details: 20 h; for serum ALT (Figure 6A): 10 mg/kg NDI, individual mice
# Experimental: Sepsis was induced in mice by cecal ligation and puncture (CLP) as described previously ([45], [46]). Mice were anesthetized with isoflurane to a surgical plane and placed in a supine position. CLP was performed through a midline laparotomy. The abdomen was shaved and disinfected. Through a 2 cm midline incision, the cecum was exposed and then ligated with a 4-0 silk suture 1 cm proximal from the distal cecal extremity. […] A small amount of cecal content was extruded through both holes, and the ligated cecum was returned to the peritoneal cavity. The wound was closed in layers. […] A small amount of cecal content was extruded. […] Vehicle groups received an equivalent volume of PBS, while treatment groups received NDI 10 mg/kg in […] PBS via retro-orbital injection after CLP. This dose was chosen primarily on the basis of our laboratory’s prior experience, we have consistently used this dose in mouse CLP models with reproducible efficacy and without observable toxicity ([39], [44]). Sham-operated animals underwent a laparotomy without CLP. After closure, the mice received a subcutaneous injection of 0.5 mL of normal saline to overcome surgery-induced dehydration. […] All mice were subcutaneously injected with a single dose of 0.1 mg/kg buprenorphine after CLP. Serum levels of alanine aminotransferase, aspartate aminotransferase, and lactate dehydrogenase were determined using specific colorimetric enzymatic assays (Pointe Scientific Inc.) according to the manufacturer’s instructions.
# TNF-α = test: Lung TNF-α mRNA, CLP mice; type: in vivo, mouse; details: 20 h; for lung TNF-α mRNA (Figure 6F): 10 mg/kg NDI, vs sham, individual mice
# Experimental: as §1
# IL-6 [2] = test: Serum IL-6, CLP mice, ELISA; type: in vivo, mouse; details: DLL4^+ neutrophil-injected CLP mice, 10 mg/kg, 20 h
# Experimental: Sepsis was induced in mice by cecal ligation and puncture (CLP) as described previously ([45], [46]). Mice were anesthetized with isoflurane to a surgical plane and placed in a supine position. CLP was performed through a midline laparotomy. The abdomen was shaved and disinfected. Through a 2 cm midline incision, the cecum was exposed and then ligated with a 4-0 silk suture 1 cm proximal from the distal cecal extremity. For 20-hour CLP experiments, the cecum was punctured twice with a 22-gauge needle. A small amount of cecal content was extruded through both holes, and the ligated cecum was returned to the peritoneal cavity. The wound was closed in layers. For 10-day sepsis survival studies, the cecum was punctured once with a 22-gauge needle. A small amount of cecal content was extruded. Mice were allocated to the vehicle and adoptive transfer of DLL4^+ neutrophils or DLL4^– neutrophils groups. […]
# Blood was collected by heart puncture and centrifuged at 1,500g and 4°C for 10 minutes, and the plasma was separated to assess cytokine levels using enzyme-linked immunosorbent assay (ELISA) kits (BD Biosciences). The plasma TNF-α (catalog 558534) and IL-6 (catalog 555240) levels were measured by ELISA.
# KC = test: Lung keratinocyte chemoattractant (KC) mRNA, CLP mice; type: in vivo, mouse; details: 20 h; for lung KC mRNA (Figure 6H): 10 mg/kg NDI, vs sham, individual mice
# Experimental: as §1
# [3] = test system: DLL4 expression on human neutrophils; test: Frequency of DLL4^+ neutrophils (CD66^+DLL4^+), human peripheral blood neutrophils; type: cell-based; details: 12 h
# From the text: Blood samples were obtained from the deidentified healthy human subjects. Written informed consent was obtained from all participants, and human subject protocols were approved by the Institutional Review Board of the North Shore University Hospital. Five milliliters of blood was collected by venipuncture and placed in EDTA blood collection tubes. We isolated the neutrophils from fresh blood samples by immunomagnetic cell separation using an EasySep Direct Human Neutrophil Isolation Kit (catalog 19666, Stem Cell Technologies). A total of 20 × 10^6 neutrophils were obtained from 5 mL of blood. Neutrophils (1 × 10^6 cells/mL) were stimulated with 1 μg/mL eCIRP for 12 hours. The cells were then stained with anti-CD66b (clone G10F5, catalog 984102, BioLegend) and DLL4 antibodies (clone MHD4-46, catalog 346506, BioLegend), and the frequencies (percentage) of DLL4^+ neutrophils were detected by flow cytometry.
# [4] = DLL4^+ neutrophil-injected CLP mice, 10 mg/kg
Molecule,effect on lung IL-6 mRNA (IL-6 [1]; [4]),lung IL-6 mRNA (Figure 6G) (IL-6 [1]; DLL4^+ neutrophils + CLP),lung IL-6 mRNA (Figure 6G) (IL-6 [1]; DLL4^– neutrophils + CLP),"effect on serum ALT (C57BL/6 mice, CLP sepsis; [4])","serum ALT (Figure 6A) (C57BL/6 mice, CLP sepsis; DLL4^+ neutrophils + CLP)","serum ALT (Figure 6A) (C57BL/6 mice, CLP sepsis; DLL4^– neutrophils + CLP)",effect on lung TNF-α mRNA (TNF-α; [4]),lung TNF-α mRNA (Figure 6F) (TNF-α; DLL4^+ neutrophils + CLP),lung TNF-α mRNA (Figure 6F) (TNF-α; DLL4^– neutrophils + CLP),effect on serum IL-6 (IL-6 [2]),effect on lung KC mRNA (KC; [4]),lung KC mRNA (Figure 6H) (KC; DLL4^+ neutrophils + CLP),lung KC mRNA (Figure 6H) (KC; DLL4^– neutrophils + CLP),"frequency of DLL4^+ neutrophils (Figure 1K) ([3]; human neutrophils 1 × 10^6/mL, eCIRP 1 μg/mL, individual replicates)","effect on frequency of DLL4^+ neutrophils ([3]; human peripheral blood neutrophils, 1 μg/mL)"
ECAGSPCHNGGTCEDGI [NDI],"significantly decreased the mRNA expression of TNF-α, IL-6, and KC in lung tissues",1.4984 fold change and 1.1005 fold change and 1.349 fold change and 4.056 fold change and 2.97 fold change and 2.032 fold change and 0.08381 fold change and 1.663 fold change and 5.861 fold change and 2.132 fold change and 6.132 fold change,2.369 fold change and 4.979 fold change and 4.806 fold change and 5.561 fold change and 5.531 fold change and 4.244 fold change and 1.214 fold change and 2.2297 fold change and 4.655 fold change,significantly reduced the serum levels of hepatic and cell injury markers and proinflammatory cytokines,41.99 and 15.47 and 55.25 and 44.642 and 25.194 and 38.454 and 50.83 and 38.896 and 29.172 and 10.94 and 28.288 and 3.978 and 26.078 and 2.21,37.57 and 15.028 and 26.52 and 77.35 and 30.94 and 22.1 and 12.818 and 10.608,"significantly decreased the mRNA expression of TNF-α, IL-6, and KC in lung tissues",4.255 fold change and 2.291 fold change and 5.674 fold change and 4.568 fold change and 3.143 fold change and 2.408 fold change and 0.5968 fold change and 4.125 fold change and 0.8652 fold change and 4.064 fold change and 0.4766 fold change and 9.1932 fold change and 5.227 fold change and 8.424 fold change,8.678 fold change and 9.157 fold change and 5.574 fold change and 9.371 fold change and 6.524 fold change and 4.342 fold change and 3.267 fold change and 5.109 fold change and 7.731 fold change,significantly reduced the serum levels of hepatic and cell injury markers and proinflammatory cytokines,"significantly decreased the mRNA expression of TNF-α, IL-6, and KC in lung tissues",5.903 fold change and 0.6661 fold change and 4.862 fold change and 4.727 fold change and 4.686 fold change and 3.906 fold change and 2.6276 fold change and 0.3013 fold change and 7.635 fold change and 2.927 fold change and 2.999 fold change and 5.493 fold change and 8.856 fold change and 7.751 fold change and 5.829 fold change and 6.917 fold change,5.187 fold change and 6.094 fold change and 6.9598 fold change and 7.18 fold change and 9.417 fold change and 3.542 fold change and 4.905 fold change and 5.1155 fold change and 3.48 fold change and 3.364 fold change,,
B1,,,,,,,,,,,,,,16% and 10.3% and 4.81% and 7.94% and 7.27% and 10.4% and 15.89% and 20.5% and 19.83%,significantly increased the frequency of DLL4^+ neutrophils
